Assays:
[1] = target: Human Factor XIa (Homo sapiens, UniProt P03951); experiment: Inhibition of human coagulation Factor XIa by absorbance method (S-2366 substrate, 405 nm); format: biochemical; conditions: incubated at 37 °C for 20 minutes; substrate 800 µM; read-out: Recombinant Enzyme FXIa IC50
Description: • Enzyme: Human Factor XIa (ENZYME […], Cat. No. HFXIa 1111a) • Substrate: S-2366™ (CHROMOGENIX, Cat. No. 82109039) • Buffer: 145 mM NaCl, 5 mM KCl, 1 mg/mL PEG 8000, 30 mM HEPES, pH 7.4.
Test compounds dissolved in 100% DMSO at 10 mM were diluted with 100% DMSO to concentrations of 1000 µM, 200 µM, 40 µM, 8 µM, 1.6 µM, 0.32 µM, 0.064 µM, 0.0128 µM, 0.00256 µM, and […]. Then 98 µL of FXIa enzyme solution (77.7 ng/mL) was added to each well of a 96-well plate, with 98 µL of buffer added to blank wells instead. Then, 2 µL of compound at different concentrations was added; DMSO was used instead for blank and control wells. The plate was mixed using a plate shaker and incubated at 37 °C for 20 minutes.
Finally, 100 µL of substrate (800 µM) was added to each well, and the absorbance was measured at 405 nm.
Curve fitting was performed using GraphPad Prism software to calculate the IC50 values.

[2] = test system: Pooled human plasma; experiment: In vitro anticoagulant effect in human plasma (aPTT, EC1.5x); format: biochemical; conditions: 37 °C for 10 minutes
Description: aPTT (Lot 220106600), Calcium Chloride (Lot 210305600), Needle Rinse Solution (Lot 211101300): produced by Shenzhen Mindray Bio-Medical Electronics Co., Ltd. Pooled human plasma: collected from healthy individuals using disposable venous blood collection tubes (Liuyang Sanli Medical Technology Development Co., Ltd., Lot 211108, sodium citrate 9:1). Blood was collected, centrifuged at room temperature at 3000 rpm for 10 minutes, and the supernatant was collected and stored for use (Lot 20220606).
Test compounds dissolved in 100% DMSO at 10 mM were diluted with 100% DMSO to concentrations of 0.29 µM, 0.59 µM, 1.17 µM, 2.34 µM, 4.69 µM, 9.38 µM, 18.75 µM, and 37.50 µM. Then 99 µL of pooled human plasma was added to each 1.5 mL centrifuge tube, followed by the addition of 1 µL of compound at different concentrations; 1 µL of DMSO was added to the blank control. The tubes were mixed by repeated manual inversion, centrifuged briefly using a mini centrifuge to collect the samples, and then incubated in a thermostatic water bath at 37 °C for 10 minutes with mixing. The aPTT was measured using a fully automated coagulation analyzer according to the preset program.
Curve fitting was performed using GraphPad Prism software to calculate EC1.5x.

[3] = target: T1, α-Chymotrypsin (Homo sapiens, UniProt P17538); experiment: Inhibition of Chymotrypsin by absorbance method (S-2586 substrate, 405 nm); format: biochemical; conditions: Inhibitory Effect of Compounds on Chymotrypsin; 37 °C for 30 minutes
T1 construct: α-Chymotrypsin (Sigma, Cat. No. C8946); purchased Sigma C8946
Description: • Enzyme: α-Chymotrypsin (Sigma, Cat. No. C8946) • Substrate: S-2586™ (Boatman Biotech, Cat. No. B2586) • Buffer: 0.05 M HEPES; 0.145 M NaCl; 5 mM KCl and 0.1% PEG 8000, pH 7.4
Test compounds dissolved in 100% DMSO at 10 mM were diluted with 100% DMSO to concentrations of 100 µM, 33.33 µM, 11.11 µM, 3.704 µM, 1.235 µM, 0.412 µM, 0.137 µM, and 0.046 µM. Then 29.4 µL of Chymotrypsin enzyme solution (20 nM) was added to each well of a 384-well plate, with 29.4 µL of buffer added to blank wells instead. Then, 0.6 µL of compound at different concentrations was added; DMSO was used instead for blank and control wells. The plate was mixed using a plate shaker and incubated at 37 °C for 30 minutes.
Finally, 30 µL of substrate at a concentration of 200 µM was added to each well, and the absorbance was measured at 405 nm.
Table 4. Inhibitory Effect of Compounds on Chymotrypsin

[4] = target: T2, Human Trypsin (Homo sapiens, UniProt P07477); experiment: Inhibition of Trypsin by absorbance method (S-2222 substrate, 405 nm); format: biochemical; conditions: Inhibitory Effect of Compounds on Trypsin; 37 °C for 30 minutes
T2 construct: purchased Sigma T6424
Description: • Enzyme: Human Trypsin (Sigma, Cat. No. T6424) • Substrate: S-2222™ (CHROMOGENIX, Cat. No. 82031639) • Buffer: 0.1 M sodium phosphate; 0.2 M NaCl and 0.5% PEG 8000, pH 7.4
Test compounds dissolved in 100% DMSO at 10 mM were diluted with 100% DMSO to concentrations of 10000 µM, 3333 µM, 1111 µM, 370.4 µM, 123.5 µM, 41.2 µM, 13.7 µM, and 4.6 µM. Then, 29.4 µL of Trypsin enzyme solution (0.8 nM) was added to each well of a 384-well plate, with 29.4 µL of buffer added to blank wells instead. Then, 0.6 µL of compound at different concentrations was added; DMSO was used instead for blank and control wells. The plate was mixed using a plate shaker and incubated at 37 °C for 30 minutes.
Finally, 30 µL of substrate at a concentration of 40 µM was added to each well, and the absorbance was measured at 405 nm.
Table 5. Inhibitory Effect of Compounds on Trypsin

[5] = target: T3, Human FIIa (Homo sapiens, UniProt P00734); experiment: Inhibition of coagulation factor FIIa by absorbance method (S-2366 substrate, 405 nm); format: biochemical; conditions: Inhibitory Effect of Compounds on Coagulation Factor FIIa; 37 °C for 30 minutes
T3 construct: Human FIIa (Enzyme Research Laboratories, Cat. No. HT 1002a); purchased Enzyme Research Laboratories HT 1002a
Description: Then 29.4 μL of FIIa enzyme solution (4 nM) was added to each well of a 384-well plate, with 29.4 μL of buffer added to blank wells instead. Then, 0.6 μL of compound at different concentrations was added; DMSO was used instead for blank and control wells. The plate was mixed using a plate shaker and incubated at 37 °C for 30 minutes. […] Table 6. Inhibitory Effect of Compounds on Coagulation Factor FIIa

[6] = Pharmacokinetic experiment in rats (iv and PO); conditions: male, Sprague-Dawley (SD), rat, plasma, 5 mg/kg
Description: (§1) Polyethylene glycol 400 (PEG-400, Lot GORKREUT, Shaen Chemical Technology (Shanghai) Co., Ltd.), DMSO (Lot 20200319, Guangdong Guanghua Sci-Tech Co., Ltd.), normal saline (Lot C20052604, Jiangxi Kelun Pharmaceutical Co., Ltd.). LC-MS instrument (Thermo Fisher Ultimate 3000 UPLC, TSQ QUANTUM ULTRA triple quadrupole mass spectrometer, AB SCIEX 5500 QTARP).
(§2) SD rats: Male, 180-250 g, purchased from Guangdong Vital River Laboratory Animal Technology Co., Ltd.
(§3) The test compound powder was accurately weighed, completely dissolved in DMSO, then PEG-400 was added. The mixture was vortexed and sonicated to mix, followed by the addition of normal saline. The mixture was vortexed and sonicated again to achieve a final concentration of 0.5 mg/mL (DMSO:PEG-400:NS = 5:60:35, V/V/V). The dosing volume was 10 mL/kg for oral gavage and 0.5 mL/kg for intravenous administration.
(§4) After intravenous or oral administration to rats, 200 µL of venous blood was collected at 5 min (not collected for oral group), 15 min, 30 min, 1 h, 2 h, 5 h, 7 h, and 24 h into heparinized EP tubes. The blood was centrifuged at 12,000 rpm for 2 minutes, and the plasma was collected and stored at -80 °C until analysis.
(§5) A precise amount of the test compound was weighed and dissolved in DMSO to 1 mg/mL as a stock solution. An appropriate volume of the compound stock solution was accurately pipetted and diluted with acetonitrile to prepare standard series solutions. 20 µL of each standard series solution was accurately pipetted and added to 180 µL of blank plasma, vortexed to mix, to prepare plasma samples equivalent to plasma concentrations of 1 ng/mL, 3 ng/mL, 10 ng/mL, 30 ng/mL, 100 ng/mL, 300 ng/mL, 1000 ng/mL, 3000 ng/mL, and 5000 ng/mL. Each concentration was analyzed in duplicate to establish the standard curve. 20 µL of plasma sample was taken, and 200 µL of an internal standard (propranolol, 5 ng/mL) in acetonitrile solution was added. The mixture was vortexed and centrifuged at 4000 rpm for 5 minutes. The supernatant was taken for LC-MS analysis. The LC-MS detection conditions were as follows: Chromatographic Column: Waters ACQUITY™ PREMIER HSS T3, 50*2.1 mm, 1.8 µm.
(§6) Mobile phase A: water (0.1% formic acid), mobile phase B: acetonitrile, flow rate: 0.5 mL/min, gradient elution: see Table 2 below.
(§7) After determining the plasma drug concentration by LC-MS, the pharmacokinetic parameters following administration to rats were calculated using the non-compartmental model in WinNonlin 6.1 software.

[7] = in vivo; conditions: male, Sprague-Dawley (SD), rat
Description: as §1, §2, §3, §4, §5, §6, §7

Sequence of Human Factor XIa (P03951 388-625 limits assumed): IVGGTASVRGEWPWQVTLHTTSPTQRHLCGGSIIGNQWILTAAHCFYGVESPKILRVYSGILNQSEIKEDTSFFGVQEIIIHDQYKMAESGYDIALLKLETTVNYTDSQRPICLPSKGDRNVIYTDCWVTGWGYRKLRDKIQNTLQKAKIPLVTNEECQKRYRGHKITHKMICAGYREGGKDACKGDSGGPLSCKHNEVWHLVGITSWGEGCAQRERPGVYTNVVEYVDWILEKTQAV
Sequence of Human Factor XIa (P03951 19-387 partner limits assumed): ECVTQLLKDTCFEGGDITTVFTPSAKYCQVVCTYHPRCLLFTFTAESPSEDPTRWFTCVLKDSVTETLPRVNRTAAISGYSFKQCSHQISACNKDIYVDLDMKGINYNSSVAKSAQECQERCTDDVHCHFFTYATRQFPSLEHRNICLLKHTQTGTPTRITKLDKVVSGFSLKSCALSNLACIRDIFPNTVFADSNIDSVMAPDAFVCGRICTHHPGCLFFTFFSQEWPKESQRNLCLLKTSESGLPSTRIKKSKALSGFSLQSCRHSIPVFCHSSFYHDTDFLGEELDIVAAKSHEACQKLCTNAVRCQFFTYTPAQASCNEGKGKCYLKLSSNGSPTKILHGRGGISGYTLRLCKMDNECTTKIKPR
T1 sequence (P17538 34-164 limits assumed, other chains not shown): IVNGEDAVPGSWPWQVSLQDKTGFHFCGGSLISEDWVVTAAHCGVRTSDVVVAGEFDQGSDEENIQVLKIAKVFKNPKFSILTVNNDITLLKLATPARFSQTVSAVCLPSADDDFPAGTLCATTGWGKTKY
T1 sequence (P17538 167-263 limits assumed, other chains not shown): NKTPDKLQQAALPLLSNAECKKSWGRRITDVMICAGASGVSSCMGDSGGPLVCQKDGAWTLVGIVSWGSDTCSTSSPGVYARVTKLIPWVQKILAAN

Row | IC50 [1] [nM] | IC50 [3] [nM] | IC50 [4] [nM] | IC50 [5] [nM] | bioavailability [6] [%] | Compound | Human Plasma APTT 1.5x [2] [µM] | bioavailability [7] [%]
1 | 0.36 | 390 | 322 | 6920 | 59.6 | [2H]C([2H])([2H])n1ncc2c1-c1cc(cc(F)c1F)[C@@H](n1cnc(-c3cc(Cl)ccc3-n3cc(Cl)nn3)cc1=O)CCC[C@@H](C)C(=O)N2 [Compound 17, (3S,7R)-3-(4-(5-chloro-2-(4-chloro-1H-1,2,3-triazol-1-yl)phenyl)-6-oxopyrimidin-1(6H)-yl)-2^5,2^6-difluoro-7-methyl-1^1-(methyl-d3)-1^1H-9-aza-1(5,4)-pyrazola-2(1,3)-benzenacyclononaphan-8-one] | 0.04 | –
2 | – | 103 | 110 | 2150 | – | [2H]C([2H])([2H])n1ncc2c1-c1cc(F)cc(c1)[C@@H](n1cnc(-c3cc(Cl)ccc3-n3cc(Cl)nn3)cc1=O)CCC[C@@H](C)C(=O)N2 [Comparative compound 3, reference compound] | – | –
3 | 0.24 | 411 | 225 | 5630 | – | [2H]C([2H])([2H])n1ncc2c1-c1cc(F)c(F)c(c1)[C@@H](n1cnc(-c3cc(Cl)ccc3-n3cc(Cl)nn3)cc1=O)CCC[C@@H](C)C(=O)N2 [Compound 1, (3S,7R)-3-(4-(5-chloro-2-(4-chloro-1H-1,2,3-triazol-1-yl)phenyl)-6-oxopyrimidin-1(6H)-yl)-2^4,2^5-difluoro-7-methyl-1^1-(methyl-d3)-1^1H-9-aza-1(5,4)-pyrazola-2(1,3)-benzenacyclononaphan-8-one] | – | –
4 | – | 79.2 | 83.1 | 3140 | – | [2H]C([2H])([2H])n1ncc2c1-c1cccc(c1)[C@@H](n1cnc(-c3cc(Cl)ccc3-n3cc(Cl)nn3)cc1=O)CCC[C@@H](C)C(=O)N2 [Comparative compound 2, reference compound] | – | –
5 | 0.62 | 173 | 355 | – | 19 | [2H]C([2H])([2H])n1ncc2c1-c1cc(F)c(F)c(c1)[C@@H](n1cnc(-c3c(-n4cc(C(F)(F)F)nn4)ccc(Cl)c3F)cc1=O)CCC[C@@H](C)C(=O)N2 [Compound 4, (3S,7R)-3-(4-(3-chloro-2-fluoro-6-(4-(trifluoromethyl)-1H-1,2,3-triazol-1-yl)phenyl)-6-oxopyrimidin-1(6H)-yl)-2^4,2^5-difluoro-7-methyl-1^1-(methyl-d3)-1^1H-9-aza-1(5 ,4)-pyrazola-2(1,3)-benzenacyclononaphan-8-one] | 0.20 | –
6 | – | 223 | 627 | 11100 | 21.9 | [2H]C([2H])([2H])n1ncc2c1-c1cc(cc(F)c1F)[C@@H](n1cnc(-c3cc(Cl)ccc3-n3cc(C(F)(F)F)nn3)cc1=O)CCC[C@@H](C)C(=O)N2 [Compound 18, (3S,7R)-3-(4-(5-chloro-2-(4-(trifluoromethyl)-1H-1,2,3-triazol-1-yl)phenyl) -6-oxopyrimidin-1(6H)-yl)-2^5,2^6-difluoro-7-methyl-1^1-(methyl-d3)-1^1H-9-aza-1(5,4)-pyrazola-2(1,3)-benzenacyclononaphan-8-one] | – | –
7 | 0.4 | 164 | 219 | 9210 | 44.5 | [2H]C([2H])([2H])n1ncc2c1-c1cc(cc(F)c1F)[C@@H](n1cnc(-c3c(-n4cc(C(F)(F)F)nn4)ccc(Cl)c3F)cc1=O)CCC[C@@H](C)C(=O)N2 [Compound 16, (3S,7R)-3-(4-(3-chloro-2-fluoro-6-(4-(trifluoromethyl)-1H-1,2,3-triazol-1-yl)phenyl)-6-oxopyrimidin-1(6H)-yl)-2^52^6-difluoro-7-methyl-1^1-(methyl-d3)-1^1H-9-aza-1(5,4)-pyrazola-2(1,3)-benzenacyclononaphan-8-one] | 0.31 | –

Row | Compound | IC50 [1] [nM] | IC50 [3] [nM] | IC50 [4] [nM] | IC50 [5] [nM] | bioavailability [6] [%] | Human Plasma APTT 1.5x [2] [µM] | bioavailability [7] [%]
8 | C[C@@H]1CCC[C@H](n2cnc(-c3cc(Cl)ccc3-n3cc(C(F)(F)F)nn3)cc2=O)c2cc(cc(F)c2F)-c2c(cnn2C(F)F)NC1=O [Compound 12, (3R,7R)-3-(4-(5-chloro-2-(4-(trifluoromethyl)-1H-1,2,3-triazol-1-yl)phenyl) -6-oxopyrimidin-1(6H)-yl)-24,2^5-difluoro-7-methyl-1^1-difluoromethyl-1^1H-9-aza-1(5,4)-pyr azola-2(1,3)-benzenacyclononaphan-8-one] | 0.31 | – | – | – | – | 0.28 | 29.4
